This is an account of results in ChEMBL document CHEMBL1144926, “Structure-activity relationships of dynorphin a analogues modified in the address sequence” (J Med Chem, 2003).

Non-standard residues stand in square brackets, D forms with d. Residues, ends and D or L forms follow the SMILES beside them. Nle = CCCC[C@H](N)C(=O)O

One test concerns the target Mu-type opioid receptor (Homo sapiens, UniProt P35372). The test can be described thus: biochemical. Format: cell-based, CHO.
Test [1] has as its target T1, Kappa-type opioid receptor (Homo sapiens, UniProt P41145). Description: biochemical. Format: cell-based, CHO.
The target of test [2] is Delta-type opioid receptor (Homo sapiens, UniProt P41143). The test can be described thus: In vitro binding affinity to human Opioid receptor delta 1 on CHO cell membranes using [3H]diprenorphine displacement.
Sequence of Delta-type opioid receptor (P41143 whole entry): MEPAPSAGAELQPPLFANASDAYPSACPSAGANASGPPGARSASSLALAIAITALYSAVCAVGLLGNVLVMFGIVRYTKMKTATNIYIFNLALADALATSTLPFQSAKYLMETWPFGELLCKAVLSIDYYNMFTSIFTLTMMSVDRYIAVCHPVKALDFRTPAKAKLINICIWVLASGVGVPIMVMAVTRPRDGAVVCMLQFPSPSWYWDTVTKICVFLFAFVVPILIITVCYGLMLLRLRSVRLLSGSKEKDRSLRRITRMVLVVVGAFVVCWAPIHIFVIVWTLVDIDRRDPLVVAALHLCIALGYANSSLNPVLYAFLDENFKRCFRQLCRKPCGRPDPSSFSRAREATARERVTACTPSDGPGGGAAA
Test [3] concerns the target Mu-type opioid receptor (Cavia porcellus) (UniProt P97266). Particulars: Ileum.
For test [4], the target named is T2, Opioid receptors; mu/kappa/delta (Homo sapiens) (UniProt P41145+P41143+P35372). The test can be described thus: Binding affinity towards human kappa,mu,delta receptors was calculated as the ratio; 1/34/69. Format: protein assay.
T2 sequence (P35372 whole entry, looked up): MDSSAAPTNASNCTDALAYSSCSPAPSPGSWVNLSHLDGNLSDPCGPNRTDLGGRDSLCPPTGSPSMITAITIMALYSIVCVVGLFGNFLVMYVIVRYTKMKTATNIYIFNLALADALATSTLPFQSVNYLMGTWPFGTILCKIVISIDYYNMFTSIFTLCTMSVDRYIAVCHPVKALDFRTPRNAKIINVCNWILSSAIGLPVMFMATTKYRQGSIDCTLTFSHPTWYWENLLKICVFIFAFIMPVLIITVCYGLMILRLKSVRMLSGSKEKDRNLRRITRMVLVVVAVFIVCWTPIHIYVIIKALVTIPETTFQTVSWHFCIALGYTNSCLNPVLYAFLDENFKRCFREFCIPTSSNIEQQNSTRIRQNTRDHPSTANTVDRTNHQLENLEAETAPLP
T2 sequence (P41143 whole entry, looked up): as the sequence (P41143 whole entry) above
T2 sequence (P41145 whole entry, looked up): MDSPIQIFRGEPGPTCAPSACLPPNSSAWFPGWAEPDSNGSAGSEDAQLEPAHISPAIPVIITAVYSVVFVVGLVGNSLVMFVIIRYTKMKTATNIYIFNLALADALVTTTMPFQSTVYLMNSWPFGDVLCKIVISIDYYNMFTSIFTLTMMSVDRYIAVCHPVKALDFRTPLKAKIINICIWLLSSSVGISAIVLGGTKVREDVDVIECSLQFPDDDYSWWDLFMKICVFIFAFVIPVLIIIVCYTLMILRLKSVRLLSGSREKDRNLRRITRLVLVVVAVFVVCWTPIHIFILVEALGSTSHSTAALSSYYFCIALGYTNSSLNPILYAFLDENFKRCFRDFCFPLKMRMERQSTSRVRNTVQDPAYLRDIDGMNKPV
In test [5] the target is T1, Kappa-type opioid receptor. Description: Antagonistic activity in theOpioid receptor kappa 1 -mediated [35S]GTP-gamma-S, binding assay against 50 nM U-50,488. Format: functional. (Binding of GTPγS marks nucleotide exchange on a G protein.)
For test [6], the target named is T1, Kappa-type opioid receptor. Description: Antagonistic activity in the Opioid receptor kappa 1 -mediated [35S]GTP-gamma-S, binding assay against 50 nM U-50,488. Format: functional.
The target of test [7] is T2, Opioid receptors; mu/kappa/delta (Homo sapiens). Description: Binding affinity towards human kappa,mu,delta receptors was calculated as the ratio; 1/560/1200. Format: protein assay.
The target in test [8] is T1, Kappa-type opioid receptor. The test is classed as functional.
Test [9] deals with T2, Opioid receptors; mu/kappa/delta (Homo sapiens). The test can be described thus: Binding affinity towards human kappa,mu,delta receptors was calculated as the ratio; 1/3.4/2.3. The test is classed as protein assay.
Test [10] shares this target. Description: Binding affinity towards human kappa,mu,delta receptors was calculated as the ratio; 1/620/1300. The test is classed as protein assay.
For test [11] the target is unchanged. Description: Binding affinity towards human kappa,mu,delta receptors was calculated as the ratio; 1/360/360. Format: protein assay.
Test [12] concerns the target T1, Kappa-type opioid receptor. Particulars: 10 uM.

Sequence of Mu-type opioid receptor (P35372 whole entry): as the sequence (P35372 whole entry, looked up) above
Sequence of Mu-type opioid receptor (Cavia porcellus) (P97266 whole entry): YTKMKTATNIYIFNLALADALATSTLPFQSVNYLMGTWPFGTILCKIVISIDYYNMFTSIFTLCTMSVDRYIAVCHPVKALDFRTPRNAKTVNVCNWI
T1 sequence (P41145 whole entry): as the sequence (P41145 whole entry, looked up) above

In the case of `CC[C@H](C)[C@H](NC(=O)[C@H](CCCNC(=N)N)NC(=O)[C@H](CCCNC(=N)N)NC(=O)[C@H](CC(C)C)NC(=O)[C@H](Cc1ccccc1)NC(=O)CNC(=O)CNC(=O)[C@@H](N)Cc1ccc(O)cc1)C(=O)N[C@@H](CCCNC(=N)N)C(=O)N1CCC[C@H]1C(=O)O`, the Ki – broadly, a dissociation constant, usually derived from enzyme kinetics or from competition with a known ligand – at Mu-type opioid receptor worked out at 0.0119 µM; in test [1] it was 0.35 nM; in test [2] it was 0.024 µM.
Regarding `Oc1ccc2c3c1O[C@H]1c4[nH]c5c(c4C[C@@]4(O)[C@@H](C2)N(CC2CC2)CC[C@]314)C[C@@]1(O)[C@H]2Cc3ccc(O)c4c3[C@@]1(CCN2CC1CC1)[C@H]5O4`, the Ke in test [3] was 0.572 nM.
Turning to `CC[C@H](C)[C@H](NC(=O)[C@H](CCCN=C(N)N)NC(=O)[C@H](CCCN=C(N)N)NC(=O)[C@H](CC(C)C)NC(=O)[C@H](Cc1ccccc1)NC(=O)CNC(=O)CNC(=O)[C@@H](N)Cc1ccc(O)cc1)C(=O)N[C@@H](CCCN=C(N)N)C(=O)N1CCC[C@@H]1C(=O)O`, the Ki ratio result in [4] is on record as “kappa/mu/delta”.
With `CC[C@H](C)[C@H](NC(=O)[C@H](CCCNC(=N)N)NC(=O)[C@H](CCCNC(=N)N)NC(=O)[C@H](CC(C)C)NC(=O)[C@H](Cc1ccccc1)NC(=O)[C@@H]1CCCN1C(=O)CNC(=O)[C@@H](N)Cc1ccc(O)cc1)C(=O)N[C@@H](CCCNC(=N)N)C(=O)N1CCC[C@H]1C(=O)N[C@@H](CCCCN)C(N)=O`, the results for the Ki (on Mu-type opioid receptor; in test [1]) were 5.25 µM and 2.4 nM, respectively. In test [5], the IC50 (in general, the concentration that inhibits the measured activity by half) amounted to 440 nM.
`CC(C)C[C@H](NC(=O)[C@H](Cc1ccccc1)NC(=O)[C@@H]1CCCN1C(=O)CNC(=O)[C@@H](N)Cc1ccc(O)cc1)C(=O)N[C@@H](CCCN=C(N)N)C(=O)N[C@@H](CCCN=C(N)N)C(=O)N[C@@H](CCCN=C(N)N)C(N)=O`: the Ki on Mu-type opioid receptor is 3.1 µM; in test [1] it was 6.61 nM; in [2] it was more than 100 µM. Besides, the IC50 in test [6] is 4 µM.
Turning to `CC(C)C[C@H](NC(=O)[C@H](Cc1ccccc1)NC(=O)CNC(=O)CNC(=O)[C@@H](N)Cc1ccc(O)cc1)C(=O)N[C@@H](CCCNC(=N)N)C(=O)N[C@@H](CCCNC(=N)N)C(=O)O`, the figures for the Ki (at Mu-type opioid receptor; in test [2]) were 0.038 µM and 0.0097 µM, respectively.
For H-YGPFLRRIR-NH2, the Ki ratio result in [7] is on record as “kappa/delta/mu”. In addition, the Ki was 6.03 µM on Mu-type opioid receptor, 10.7 nM in test [1] and 13.2 µM in test [2].
Turning to H-YGGFLR-OH, the Ki at Mu-type opioid receptor is 0.0406 µM; in [1], 404 nM; in [2] it was 0.0091 µM.
As to H-YGPFL-NH2, the results for the Ki (on Mu-type opioid receptor; in test [1]; in [2]) were 15.5 µM, more than 10000 nM and 18.6 µM, respectively.
At Mu-type opioid receptor, `CC[C@H](C)[C@H](NC(=O)[C@H](CCCN=C(N)N)NC(=O)[C@H](CCCN=C(N)N)NC(=O)[C@H](CC(C)C)NC(=O)[C@H](Cc1ccccc1)NC(=O)CNC(=O)CNC(=O)[C@@H](N)Cc1ccc(O)cc1)C(=O)O` registered a Ki of 0.0354 µM.
`CC[C@H](C)[C@H](NC(=O)[C@H](CCCN=C(N)N)NC(=O)[C@H](CCCN=C(N)N)NC(=O)[C@H](CC(C)C)NC(=O)[C@H](Cc1ccccc1)NC(=O)[C@@H]1CCCN1C(=O)CNC(=O)[C@@H](N)Cc1ccc(O)cc1)C(=O)N[C@@H](CCCN=C(N)N)C(=O)N1CCC[C@@H]1C(=O)N[C@@H](CCCCN)C(N)=O`: the Ke in test [3] stood at 494 nM.
`CC(C)C[C@H](NC(=O)[C@H](Cc1ccccc1)NC(=O)[C@@H]1CCCN1C(=O)CNC(=O)[C@@H](N)Cc1ccc(O)cc1)C(=O)N[C@@H](CCCNC(=N)N)C(=O)N[C@@H](CCCNC(=N)N)C(=O)N[C@@H](CCCNC(=N)N)C(=O)N[C@@H](CCCNC(=N)N)C(=O)N1CCC[C@H]1C(=O)N[C@@H](CCCCN)C(N)=O`: the results for the Ki (on Mu-type opioid receptor (cho); in [1] (cho); in [2] (cho)) were 2.75 µM, 0.44 nM and 6.76 µM, respectively. The same compound came in with an IC50 in [8] of 340 nM.
With H-YGPFLR-NH2 [listing 1 of 2 here], the Ki ratio result in [9] is “kappa/delta/mu”.
Regarding H-YGGFLRRIR-OH, the inhibition constant Ki on Mu-type opioid receptor worked out at 0.0238 µM; in test [1], 2.5 nM; in [2], 0.0098 µM.
In test [3], `CC(C)C[C@H](NC(=O)[C@H](Cc1ccccc1)NC(=O)[C@@H]1CCCN1C(=O)CNC(=O)[C@@H](N)Cc1ccc(O)cc1)C(=O)N[C@@H](CCCN=C(N)N)C(=O)N[C@@H](CCCN=C(N)N)C(=O)N[C@@H](CCCN=C(N)N)C(=O)N[C@@H](CCCN=C(N)N)C(=O)N1CCC[C@@H]1C(=O)N[C@@H](CCCCN)C(N)=O` gave a Ke of 280 nM.
H-YGPFLRR-NH2: the results for the Ki (at Mu-type opioid receptor; in [1]; in [2]) were 12.6 µM, 60.3 nM and 15.1 µM, respectively.
In the same order, the values of H-YGPFLRRI-NH2 are 16.2 µM, 79.4 nM and 16.2 µM.
Consider `CC[C@H](C)[C@H](NC(=O)[C@H](CCCN=C(N)N)NC(=O)[C@H](CCCN=C(N)N)NC(=O)[C@H](CC(C)C)NC(=O)[C@H](Cc1ccccc1)NC(=O)[C@@H]1CCCN1C(=O)CNC(=O)[C@@H](N)Cc1ccc(O)cc1)C(=O)N[C@@H](CCCN=C(N)N)C(=O)N1CCC[C@@H]1C(N)=O`, for which, in test [10], the Ki ratio entry is “kappa/mu/delta”.
As to `CCCC[C@H](NC(=O)[C@H](CC(C)C)NC(=O)[C@H](Cc1ccccc1)NC(=O)[C@@H]1CCCN1C(=O)CNC(=O)[C@@H](N)Cc1ccc(O)cc1)C(=O)N[C@@H](CCCN=C(N)N)C(N)=O` (H-YGPFL[Nle]R-NH2), the Ki is more than 100 µM on Mu-type opioid receptor, more than 100000 nM in test [1] and 14.1 µM in [2].
`CC[C@H](C)[C@H](NC(=O)[C@H](CCCNC(=N)N)NC(=O)[C@H](CCCNC(=N)N)NC(=O)[C@H](CC(C)C)NC(=O)[C@H](Cc1ccccc1)NC(=O)[C@@H]1CCCN1C(=O)CNC(=O)[C@@H](N)Cc1ccc(O)cc1)C(=O)N[C@@H](CCCNC(=N)N)C(=O)N[C@@H](CCCNC(=N)N)C(N)=O`: the figures for the Ki (at Mu-type opioid receptor (cho); in [1] (cho); in test [2] (cho)) were 2.34 µM, 3.39 nM and 6.03 µM, respectively. Besides, 1260 nM corresponded to half-maximal inhibition in test [8] (IC50).
Consider `CC[C@H](C)[C@H](NC(=O)[C@H](CCCN=C(N)N)NC(=O)[C@H](CCCN=C(N)N)NC(=O)[C@H](CC(C)C)NC(=O)[C@H](Cc1ccccc1)NC(=O)[C@@H]1CCCN1C(=O)CNC(=O)[C@@H](N)Cc1ccc(O)cc1)C(=O)N[C@@H](CCCN=C(N)N)C(=O)N1CCC[C@@H]1C(=O)N[C@@H](CCCCN)C(=O)O`, for which the Ki ratio entry in test [11] is listed as “kappa/mu/delta”.
As to `CC[C@H](C)[C@H](NC(=O)[C@H](CCCN=C(N)N)NC(=O)[C@H](CCCN=C(N)N)NC(=O)[C@H](CC(C)C)NC(=O)[C@H](Cc1ccccc1)NC(=O)[C@@H]1CCCN1C(=O)CNC(=O)[C@@H](N)Cc1ccc(O)cc1)C(=O)N[C@@H](CCCN=C(N)N)C(=O)N1CCC[C@H]1C(N)=O`, the Ki at Mu-type opioid receptor (cho) was determined as 6.2 µM; in test [1] (cho), 10 nM; in test [2] (cho), 13.5 µM.
Take `CC[C@H](C)[C@H](NC(=O)[C@H](CCCNC(=N)N)NC(=O)[C@H](CCCNC(=N)N)NC(=O)[C@H](CC(C)C)NC(=O)[C@H](Cc1ccccc1)NC(=O)CNC(=O)CNC(=O)[C@@H](N)Cc1ccc(O)cc1)C(=O)N[C@@H](CCCNC(=N)N)C(=O)N1CCC[C@H]1C(=O)N[C@@H](CCCCN)C(=O)N[C@@H](CC(C)C)C(=O)N[C@@H](CCCCN)C(=O)O`: the Ki in test [1] amounted to 0.23 nM.
The compound `CC[C@H](C)[C@H](NC(=O)[C@H](CCCN=C(N)N)NC(=O)[C@H](CCCN=C(N)N)NC(=O)[C@H](CC(C)C)NC(=O)[C@H](Cc1ccccc1)NC(=O)CNC(=O)CNC(=O)[C@@H](N)Cc1ccc(O)cc1)C(=O)N[C@@H](CCCN=C(N)N)C(=O)N1CCC[C@H]1C(=O)N[C@@H](CCCCN)C(N)=O` had a Max stimulation in [12] of 73%. The Ki in [1] was 0.059 nM.
Turning to H-YGPFLR-NH2 [listing 2 of 2 here], the results for the Ki (on Mu-type opioid receptor; in [1]; in test [2]) were 19.5 µM, 5600 nM and 12.6 µM, respectively.
For `CC[C@H](C)[C@H](NC(=O)[C@H](CCCNC(=N)N)NC(=O)[C@H](CCCNC(=N)N)NC(=O)[C@H](CC(C)C)NC(=O)[C@H](Cc1ccccc1)NC(=O)[C@@H]1CCCN1C(=O)CNC(=O)[C@@H](N)Cc1ccc(O)cc1)C(=O)N[C@@H](CCCNC(=N)N)C(=O)N1CCC[C@H]1C(=O)N[C@@H](CCCCN)C(=O)O`, the Ki at Mu-type opioid receptor (cho) worked out at 15.1 µM; in [1] (cho), 41.7 nM; in test [2] (cho) it was 15 µM.
With `CC[C@H](C)[C@H](NC(=O)[C@H](CCCNC(=N)N)NC(=O)[C@H](CCCNC(=N)N)NC(=O)[C@H](CC(C)C)NC(=O)[C@H](Cc1ccccc1)NC(=O)[C@@H]1CCCN1C(=O)CNC(=O)[C@@H](N)Cc1ccc(O)cc1)C(=O)N[C@@H](CCCNC(=N)N)C(=O)N[C@@H](CCCNC(=N)N)C(=O)N[C@@H](CCCCN)C(N)=O`, the values for the Ki (at Mu-type opioid receptor (cho); in test [1] (cho); in [2] (cho)) were 1.66 µM, 1.2 nM and 3.23 µM, respectively. The compound also had an IC50 in [8] of 410 nM.
